From BindingDB's records for doi:10.1021/jm00177a018 (1980)

Target: Aldehyde oxidase (Oryctolagus cuniculus)
Assay: Tested for its ability to inhibit rabbit liver aldehyde oxidase catalyzed oxidation of N-methyl-nicotinamide (NMN)

SMILES | Ki [µM]
CCOC(CCP(=O)(OCC)OCC)OCC | 200
CCOP(=O)(CC=O)OCC | 300
CCOP(=O)(CCC=O)c1ccccc1 (stereo not drawn) | 100
